Key:
Aβ oligomers [1] = target: T1, Aβ oligomers (Homo sapiens, UniProt P05067); assay: Isothermal titration calorimetry (ITC) binding to Aβ oligomers; settings: KD ITC, Table 1, PBS pH 7.4, 285 K, Aβ 100 µM in cell, ligand 250 µM in syringe, two independent site model
T1 construct: Ser^26 depsipeptide iso-Aβ (1–42) was used; made in house; host or cells: chemical peptide synthesis (no expression host)
Method: The binding affinities of 2b–2i to Aβ oligomers were tested in ITC experiments.
In this work, Ser^26 depsipeptide iso-Aβ (1–42) was used, which was synthesized and purified as described previously. The lyophilized iso-Aβ (1–42) was dissolved in MilliQ water to a concentration of 1 mg mL^−1, sonicated for 3 min and the pH was set to 7.0 to initiate an O to N acyl migration, whereby the native sequence can be readily formed. The sample was incubated at room temperature for 10 min. Then the pH was set to 11 and the sample was kept at room temperature for additional 2 h. After the incubation, the Aβ stock solution was aliquoted and stored at −20 °C until use. To obtain Aβ oligomers, the 1 mg mL^−1 aliquot was diluted to a final concentration of 50 μM with 26.67 mM PBS and the pH was set to 7.4 with 1 M HCl. The sample was incubated at 37 °C for 3 h.
Isothermal calorimetric titrations were performed with a Microcal VP-ITC microcalorimeter in pH 7.4 PBS buffer solution. In individual titrations, 10 µL portions of the ligand containing solution were repeatedly injected from the computer-controlled 300-µL microsyringe at intervals of 300 s into the Aβ oligomer solution prepared in the same buffer as the ligand. All measurements were carried out at 285 K. The Aβ concentration in the cell was 100 µM and the total ligand concentration was 250 µM in the syringe and the titration was stopped when the precipitation of the Aβ aggregates became excessive. Control experiments were performed by injecting the ligand into a cell containing buffer with no target, and the heats of dilution were subtracted from those measured in the presence of Aβ. The experimental data were fitted to the two independent site binding models by using a nonlinear least-squares procedure, with ΔHb, ΔHb’, Kd, Kd’ ([…]), n and n’ (number of binding sites for monomer), as adjustable parameters.

Aβ oligomers [2] = target: T1, Aβ oligomers; assay: Sandwich ELISA binding of biotin-tagged conjugates to Aβ
Description: To study the role of certain structure elements in the binding affinity, a set of new foldamer sequences were designed (Figure 2) and ligated to lysine-dendron scaffolds having a focal symmetry. This template with biotin affinity tag can be easily synthesized by solid phase peptide synthesis and immobilized on a streptavidin coated support such as the surface of the ELISA plate. Structural changes included fine-tuning the side-chain properties (2b–2d), changing the position of ionic residues (2e) and introducing bulky bicyclic side-chains (2f–2i).
The binding affinities of 2b–2i to Aβ oligomers were tested in ITC experiments. In such cases where the fitting failed due to low heat response or poor solubility, sandwich ELISA experiments were performed to enable the comparison of all conjugates (see Supporting Information for details).
The apparent dissociation constants for the complete set of new conjugates were calculated individually from the data of the ELISA experiments as well. Comparing the KD values of 2f–2i in this case, the replacement of ACHC to ABHC had only a minor effect on the Aβ binding. The cyclic β-amino acid ACHC not only provides the helical conformation of such a short foldamer but also protects the ionic residues from solvent upon binding due to its hydrophobicity.

T1 sequence (P05067 672-713 limits assumed): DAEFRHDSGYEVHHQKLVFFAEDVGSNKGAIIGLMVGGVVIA

Row | SMILES | Kd (Aβ oligomers [1]; first binding stage) [nM] | Kd (Aβ oligomers [1]; second binding stage) [nM] | Kd (Aβ oligomers [2]) [nM]
1 | N=C(N)NCCC[C@@H](CC(=O)N[C@H]1CCCC[C@@H]1C(=O)N[C@H]1CCCC[C@@H]1C(=O)N[C@@H](CC(=O)O)CC(=O)N[C@H]1CCCC[C@@H]1C(=O)NCC(=O)NCC(=O)N[C@@H](CSC1CC(=O)N(CCC(=O)NCCCC[C@H](NC(=O)CCN2C(=O)CC(SC[C@H](NC(=O)CNC(=O)CNC(=O)[C@H]3CCCC[C@@H]3NC(=O)C[C@H](CC(=O)O)NC(=O)[C@H]3CCCC[C@@H]3NC(=O)[C@H]3CCCC[C@@H]3NC(=O)C[C@H](CCCNC(=N)N)NC(=O)[C@H]3CCCC[C@@H]3N)C(N)=O)C2=O)C(=O)NCCCC[C@H](NC(=O)[C@H](CCCCNC(=O)CCN2C(=O)CC(SC[C@H](NC(=O)CNC(=O)CNC(=O)[C@H]3CCCC[C@@H]3NC(=O)C[C@H](CC(=O)O)NC(=O)[C@H]3CCCC[C@@H]3NC(=O)[C@H]3CCCC[C@@H]3NC(=O)C[C@H](CCCNC(=N)N)NC(=O)[C@H]3CCCC[C@@H]3N)C(N)=O)C2=O)NC(=O)CCN2C(=O)CC(SC[C@H](NC(=O)CNC(=O)CNC(=O)[C@H]3CCCC[C@@H]3NC(=O)C[C@H](CC(=O)O)NC(=O)[C@H]3CCCC[C@@H]3NC(=O)[C@H]3CCCC[C@@H]3NC(=O)C[C@H](CCCNC(=N)N)NC(=O)[C@H]3CCCC[C@@H]3N)C(N)=O)C2=O)C(=O)N[C@@H](CCCCNC(=O)CCCC[C@@H]2SC[C@@H]3NC(=O)N[C@@H]32)C(N)=O)C1=O)C(N)=O)NC(=O)[C@H]1CCCC[C@@H]1N (stereo partly drawn) [Compound 2a] | 27.6 ± 7.74 | 240 ± 68.7 | 0.95 ± 0.06
2 | NCCCC[C@@H](CC(=O)N[C@H]1CCCC[C@@H]1C(=O)N[C@H]1CCCC[C@@H]1C(=O)N[C@@H](CC(=O)O)CC(=O)N[C@H]1CCCC[C@@H]1C(=O)NCC(=O)NCC(=O)N[C@@H](CSC1CC(=O)N(CCC(=O)NCCCC[C@H](NC(=O)CCN2C(=O)CC(SC[C@H](NC(=O)CNC(=O)CNC(=O)[C@H]3CCCC[C@@H]3NC(=O)C[C@H](CC(=O)O)NC(=O)[C@H]3CCCC[C@@H]3NC(=O)[C@H]3CCCC[C@@H]3NC(=O)C[C@H](CCCCN)NC(=O)[C@H]3CCCC[C@@H]3N)C(N)=O)C2=O)C(=O)NCCCC[C@H](NC(=O)[C@H](CCCCNC(=O)CCN2C(=O)CC(SC[C@H](NC(=O)CNC(=O)CNC(=O)[C@H]3CCCC[C@@H]3NC(=O)C[C@H](CC(=O)O)NC(=O)[C@H]3CCCC[C@@H]3NC(=O)[C@H]3CCCC[C@@H]3NC(=O)C[C@H](CCCCN)NC(=O)[C@H]3CCCC[C@@H]3N)C(N)=O)C2=O)NC(=O)CCN2C(=O)CC(SC[C@H](NC(=O)CNC(=O)CNC(=O)[C@H]3CCCC[C@@H]3NC(=O)C[C@H](CC(=O)O)NC(=O)[C@H]3CCCC[C@@H]3NC(=O)[C@H]3CCCC[C@@H]3NC(=O)C[C@H](CCCCN)NC(=O)[C@H]3CCCC[C@@H]3N)C(N)=O)C2=O)C(=O)N[C@@H](CCCCNC(=O)CCCC[C@@H]2SC[C@@H]3NC(=O)N[C@@H]32)C(N)=O)C1=O)C(N)=O)NC(=O)[C@H]1CCCC[C@@H]1N (stereo partly drawn) [Compound 2b] | 53.2 ± 38.7 | 373 ± 104 | 5.36 ± 1.42
3 | N=C(N)NCCC[C@@H](CC(=O)N[C@H]1CCCC[C@@H]1C(=O)N[C@H]1CCCC[C@@H]1C(=O)N[C@@H](CCC(=O)O)CC(=O)N[C@H]1CCCC[C@@H]1C(=O)NCC(=O)NCC(=O)N[C@@H](CSC1CC(=O)N(CCC(=O)NCCCC[C@H](NC(=O)CCN2C(=O)CC(SC[C@H](NC(=O)CNC(=O)CNC(=O)[C@H]3CCCC[C@@H]3NC(=O)C[C@H](CCC(=O)O)NC(=O)[C@H]3CCCC[C@@H]3NC(=O)[C@H]3CCCC[C@@H]3NC(=O)C[C@H](CCCNC(=N)N)NC(=O)[C@H]3CCCC[C@@H]3N)C(N)=O)C2=O)C(=O)NCCCC[C@H](NC(=O)[C@H](CCCCNC(=O)CCN2C(=O)CC(SC[C@H](NC(=O)CNC(=O)CNC(=O)[C@H]3CCCC[C@@H]3NC(=O)C[C@H](CCC(=O)O)NC(=O)[C@H]3CCCC[C@@H]3NC(=O)[C@H]3CCCC[C@@H]3NC(=O)C[C@H](CCCNC(=N)N)NC(=O)[C@H]3CCCC[C@@H]3N)C(N)=O)C2=O)NC(=O)CCN2C(=O)CC(SC[C@H](NC(=O)CNC(=O)CNC(=O)[C@H]3CCCC[C@@H]3NC(=O)C[C@H](CCC(=O)O)NC(=O)[C@H]3CCCC[C@@H]3NC(=O)[C@H]3CCCC[C@@H]3NC(=O)C[C@H](CCCNC(=N)N)NC(=O)[C@H]3CCCC[C@@H]3N)C(N)=O)C2=O)C(=O)N[C@@H](CCCCNC(=O)CCCC[C@@H]2SC[C@@H]3NC(=O)N[C@@H]32)C(N)=O)C1=O)C(N)=O)NC(=O)[C@H]1CCCC[C@@H]1N (stereo partly drawn) [Compound 2c] | 2.53 ± 1.81 | 175 ± 46.4 | 1.92 ± 0.21
4 | CC1(C)[C@H]2C[C@H](N)[C@@H](C(=O)N[C@@H](CCCNC(=N)N)CC(=O)N[C@H]3CCCC[C@@H]3C(=O)N[C@H]3CCCC[C@@H]3C(=O)N[C@@H](CC(=O)O)CC(=O)N[C@H]3CCCC[C@@H]3C(=O)NCC(=O)NCC(=O)N[C@@H](CSC3CC(=O)N(CCC(=O)NCCCC[C@H](NC(=O)CCN4C(=O)CC(SC[C@H](NC(=O)CNC(=O)CNC(=O)[C@H]5CCCC[C@@H]5NC(=O)C[C@H](CC(=O)O)NC(=O)[C@H]5CCCC[C@@H]5NC(=O)[C@H]5CCCC[C@@H]5NC(=O)C[C@H](CCCNC(=N)N)NC(=O)[C@@H]5[C@@H](N)C[C@H]6C[C@@H]5C6(C)C)C(N)=O)C4=O)C(=O)NCCCC[C@H](NC(=O)[C@H](CCCCNC(=O)CCN4C(=O)CC(SC[C@H](NC(=O)CNC(=O)CNC(=O)[C@H]5CCCC[C@@H]5NC(=O)C[C@H](CC(=O)O)NC(=O)[C@H]5CCCC[C@@H]5NC(=O)[C@H]5CCCC[C@@H]5NC(=O)C[C@H](CCCNC(=N)N)NC(=O)[C@@H]5[C@@H](N)C[C@H]6C[C@@H]5C6(C)C)C(N)=O)C4=O)NC(=O)CCN4C(=O)CC(SC[C@H](NC(=O)CNC(=O)CNC(=O)[C@H]5CCCC[C@@H]5NC(=O)C[C@H](CC(=O)O)NC(=O)[C@H]5CCCC[C@@H]5NC(=O)[C@H]5CCCC[C@@H]5NC(=O)C[C@H](CCCNC(=N)N)NC(=O)[C@@H]5[C@@H](N)C[C@H]6C[C@@H]5C6(C)C)C(N)=O)C4=O)C(=O)N[C@@H](CCCCNC(=O)CCCC[C@@H]4SC[C@@H]5NC(=O)N[C@@H]54)C(N)=O)C3=O)C(N)=O)[C@@H]1C2 (stereo partly drawn) [Compound 2f] | 19.3 ± 9.4 | 816 ± 467 | 1.79 ± 0.09
5 | CC1(C)[C@H]2C[C@H](NC(=O)[C@H]3CCCC[C@@H]3NC(=O)C[C@H](CCCNC(=N)N)NC(=O)[C@H]3CCCC[C@@H]3N)[C@@H](C(=O)N[C@@H](CC(=O)O)CC(=O)N[C@H]3CCCC[C@@H]3C(=O)NCC(=O)NCC(=O)N[C@@H](CSC3CC(=O)N(CCC(=O)NCCCC[C@H](NC(=O)CCN4C(=O)CC(SC[C@H](NC(=O)CNC(=O)CNC(=O)[C@H]5CCCC[C@@H]5NC(=O)C[C@H](CC(=O)O)NC(=O)[C@@H]5[C@@H](NC(=O)[C@H]6CCCC[C@@H]6NC(=O)C[C@H](CCCNC(=N)N)NC(=O)[C@H]6CCCC[C@@H]6N)C[C@H]6C[C@@H]5C6(C)C)C(N)=O)C4=O)C(=O)NCCCC[C@H](NC(=O)[C@H](CCCCNC(=O)CCN4C(=O)CC(SC[C@H](NC(=O)CNC(=O)CNC(=O)[C@H]5CCCC[C@@H]5NC(=O)C[C@H](CC(=O)O)NC(=O)[C@@H]5[C@@H](NC(=O)[C@H]6CCCC[C@@H]6NC(=O)C[C@H](CCCNC(=N)N)NC(=O)[C@H]6CCCC[C@@H]6N)C[C@H]6C[C@@H]5C6(C)C)C(N)=O)C4=O)NC(=O)CCN4C(=O)CC(SC[C@H](NC(=O)CNC(=O)CNC(=O)[C@H]5CCCC[C@@H]5NC(=O)C[C@H](CC(=O)O)NC(=O)[C@@H]5[C@@H](NC(=O)[C@H]6CCCC[C@@H]6NC(=O)C[C@H](CCCNC(=N)N)NC(=O)[C@H]6CCCC[C@@H]6N)C[C@H]6C[C@@H]5C6(C)C)C(N)=O)C4=O)C(=O)N[C@@H](CCCCNC(=O)CCCC[C@@H]4SC[C@@H]5NC(=O)N[C@@H]54)C(N)=O)C3=O)C(N)=O)[C@@H]1C2 (stereo partly drawn) [Compound 2h] | 8.61 ± 5.64 | 79 ± 45.9 | 1.35 ± 0.08
